# What was measured:
# Male CD rats = assay: In-vivo bladder efficacy protocol (isovolumetric contractions model); parameters: species or system rat
# From the text: The utility of compounds of the inyention for the treatment of urinary incontinence, bladder overactivity and bladder instability is illustrated by the ability of compounds of the inyention to affect bladder contractions in-vivo. The following method is illustrative of the in-vivo bladder efficacy of compounds of the inyention. In-vivo bladder efficacy protocol (isovolumetric contractions model) Male CD rats (400-450 g) were anesthetized with urethane (0.6 gikg ip +0.6 g/kg sc). The left femoral vein was cannulated with polyethylene (PE-50) tubing for test compound administration. […] The bladder was emptied via this catheter and additionally by applying slight manual pressure on the lower abdomen. The urinary catheter was connected using a Y-tube connector to both a pressure transducer and a syringe pump. The urethra was then ligated using 4-0 silk suture and the bladder was slowly filled using a constant infusion of room temperature saline at the rate of 0.1 ml/min until spontaneous rhythmic contractions were evident (1.0 -1.3 ml). […] Then three doses of a test compound were administered cumulatively iv at 20 minute intervals. […] Area under the curve (AUC) of the bladder contractions was determined from the respective waveforms using a Modular Instruments, Inc. computerized data acquisition system and averaged over the last ten minutes of each twenty minute period.
# potassium channels [1] = biological target: potassium channels (Sus scrofa, UniProt F1SR11); assay: Functional potassium channel opening activity in isolated Landrace pig bladder strips (field-stimulated twitch); conditions: for Landrace Pig Bladder Index: ED50 for P1075 divided by ED50 for the test agonist, averaged over tissues; for Landrace Pig Bladder pD2: negative logarithm of ED50
# How it was run: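 Landrace pig bladder strips with the mucosa removed were field-stimulated (0.05 Hz, 0.5 ms, 20 V) in Krebs Ringer bicarbonate containing propranolol, and primed with 80 mM KCl. Cumulative concentration-response curves gave maximal efficacy relative to a reference potassium channel opener, pD2, and a potency index (reference ED50/test ED50) averaged across tissues.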
# potassium channels [2] = biological target: potassium channels (Cavia porcellus, UniProt A0A286XYR9); assay: Membrane hyperpolarization (MHP) assay in primary cultured guinea-pig urinary bladder (GPB) cells, DiBAC(4)3 FLIPR; assay type: cell-based; conditions: for EC50: concentration that elicits 50% of the maximal response for the test sample; for MHP in GPB Cells Maximal Response (% P1075): maximal steady-state hyperpolarization relative to reference P1075 (assigned as 100%)
# Procedure: Determination of Potassium Channel Opening Activity Membrane Hyperpolarization Assays Compounds were evaluated for potassium channel opening activity using the rat thoracic aorta smooth muscle AI 0 cell line or primary cultured guinea-pig urinary bladder (GPB) cells. The AI0 cell line was purchased from the American Type Culture Collection (Rockville, MD; Cat # 30-2002). […] Louis, MO) and 0.2 mg/mL ronase (Calbiochem, La Jolla, CA) with continuous stirring in a cell incubator for 30 minutes. The mixture was then centrifuged at 1300 x g for 5 minutes, and the pellet resuspended in Dulbecco's PBS (GIBCO, Gaithersburg, MD) and recentrifuged to remove residual enzyme. […] Cells were confirmed to be of smooth muscle type by cytoskeletal staining using a monoclonal mouse anti human-a-smooth muscle actin (Biomeda, Foster City, CA). Functional activity at potassium channels was measured by evaluating changes in membrane potential using the bis-oxonol dye DiBAC(4)3 (Molecular Probes) in a 96-well cell-based kinetic assay system, Fluorescent Imaging Plate Reader (FLIPR) (K.S. Schroeder et al., J. Biomed. Screen., v. I pp. 75-81 (1996)). DiBAC(4)3 is an anionic potentiometric probe which partitions between cells and extracellular solution in a membrane potential-dependent manner. With increasing membrane potential (for example, K+depolarization), the probe further partitions into the cell; this is measured as an increase in fluorescence due to dye interaction with intracellular lipids and proteins. Conyersely, decreasing membrane potential (hyperpolarization by potassium channel openers) evokes a decrease in fluorescence. […] HEPES, 20; NaCl, 120; KCl, 2; CaC'2, 2; MgCl2, 1; glucose, 5; pH 7.4 at 25 ° C.) containing 5 µM DiBAC(4)3 and incubated with […] of the buffer in a cell incubator for 30 minutes at 37 OC to ensure dye distribution across the membrane. After recording the baseline fluorescence for 5 minutes, the reference or test compounds, prepared at 10 times the concentration in the assay buffer, were added directly to the wells. Changes in fluorescence were monitored for an additional 25 minutes. […] Pharmacol., v. 43 pp. 474-481 (1993)). Routinely, five concentrations of […] or test compounds (log or half-log dilutions) were evaluated and the maximal steady-state hyperpolarization values (expressed as % relative to […]) plotted as a function of concentration. […] The maximal response of each compound (expressed as % relative to […]) is reported.
# potassium channels [3] = biological target: potassium channels (Rattus norvegicus, UniProt Q63563); assay: Membrane hyperpolarization (MHP) assay in A10 cells, DiBAC(4)3 FLIPR; assay type: cell-based; conditions: for EC50: concentration that elicits 50% of the maximal response for the test sample; for MHP in A10 Cells Maximal Response (% P1075): maximal steady-state hyperpolarization relative to reference P1075 (assigned as 100%)
# Procedure: Determination of Potassium Channel Opening Activity Membrane Hyperpolarization Assays Compounds were evaluated for potassium channel opening activity using the rat thoracic aorta smooth muscle AI 0 cell line or primary cultured guinea-pig urinary bladder (GPB) cells.
# The AI0 cell line was purchased from the American Type Culture Collection (Rockville, MD; Cat # 30-2002). Cells were grown in 96-well clear-bottomed black plates (Packard) in culture media (composition: Dulbecco′s modified Eagle′s medium supplemented with 20% Fetal Bovine Serum, 100 units/mL penicillin, 100 units/mL streptomycin and 0.25 […]) at 37 ° C. with 5% C02 in a humidified chamber to form a confluent monolayer. 25 For the preparation of urinary bladder smooth muscle cells, urinary bladders were removed from male guinea-pigs (Hartley, Charles River, Wilmington, MA) weighing 300-400 g and placed in ice-cold Ca^2+-free Krebs solution (Composition, mM: KCl, 2.7; KH2PO4, 1.5; NaCl, 75; Na2HPO4, 9.6; Na2HPO4.7H2O, 8; MgSO4, 2; glucose, 5;HEPES, 10; pH 7.4). Cells were isolated by enzymatic dissociation as previously escribed with minor modifications (Klockner, U. and Isenberg, G., Pflugers Arch. 1985, 05, 329-339). The bladder was cut into small sections and incubated in 5 mL of the reb′s solution containing I mg/mL collagenase (Sigma, St. Louis, MO) and 0.2 mg/mL ronase (Calbiochem, La Jolla, CA) with continuous stirring in a cell incubator for 30 minutes. […]
# Functional activity at potassium channels was measured by evaluating changes in membrane potential using the bis-oxonol dye DiBAC(4)3 (Molecular Probes) in a 96-well cell-based kinetic assay system, Fluorescent Imaging Plate Reader (FLIPR) (K.S. Schroeder et al., J. Biomed. Screen., v. I pp. 75-81 (1996)). […] With increasing membrane potential (for example, K+depolarization), the probe further partitions into the cell; this is measured as an increase in fluorescence due to dye interaction with intracellular lipids and proteins.
# Conyersely, decreasing membrane potential (hyperpolarization by potassium channel openers) evokes a decrease in fluorescence.
# Confluent smooth muscle A10 or guinea-pig urinary bladder cells cultured in black clear-bottomed 96-well plates were rinsed twice with […] assay buffer (composition, mM: HEPES, 20; NaCl, 120; KCl, 2; CaC′2, 2; MgCl2, 1; glucose, 5; pH 7.4 at 25 ° C.) containing 5 µM DiBAC(4)3 and incubated with […] of the buffer in a cell incubator for 30 minutes at 37 OC to ensure dye distribution across the membrane. After recording the baseline fluorescence for 5 minutes, the reference or test compounds, prepared at 10 times the concentration in the assay buffer, were added directly to the wells. Changes in fluorescence were monitored for an additional 25 minutes. […]
# potassium channels [4] = biological target: potassium channels (Homo sapiens, UniProt O60706); assay: Functional potassium channel opening activity in isolated human bladder strips (25 mM KCl contracted)
# Procedure: Human bladders were obtained from women greater than 45 years old. The human tissue was obtained from the Anatomic Gift Foundation, Phoenix AZ. Human tissue was received via overnight delivery on wet ice placed into Krebs Ringer bicarbonate solution (composition, mM: NaCl, 120; NaHCO3, 20; dextrose, 11; KCl, 4.7; 20 CaC′2, 2.5; MgSO4, 1.5; KH2PO4, 1.2; K2EDTA, 0.01, equilibrated with 5% C02/95% 02 pH 7.4 at 37 ° C.). Propranolol (0.004 mM) was included in all of the assays to block […]. The trigonal and dome portions were discarded. Strips 3-5 mm wide and 20 mm long were prepared from the remaining tissue cut in a circular fashion. The mucosal layer was removed. For the human detrusor strips the tissues were contracted 25 with 25 mM KCl which produced a steady state tension of approximately 400 centigrams. […]
# After a 60 minute rinsing period, a concentration response curve (cumulative) was 30 generated for the test agonist in the same fashion as that used for the control agonist P1075. The maxximal efficacies of the compounds (expressed as % relative to P1075) are reported. […] Agonist potencies were also expressed as an index relative to PI1075. The index was calculated by dividing the ED50 for P1075 by the ED50 for the test agonist in a given tissue. […]
# [5] = maximal efficacy relative to P1075, field stimulation 0.05Hz, 0.5 milli-seconds at 20 volts
# Sequence of potassium channels (Rattus norvegicus, UniProt Q63563) (Q63563 whole entry): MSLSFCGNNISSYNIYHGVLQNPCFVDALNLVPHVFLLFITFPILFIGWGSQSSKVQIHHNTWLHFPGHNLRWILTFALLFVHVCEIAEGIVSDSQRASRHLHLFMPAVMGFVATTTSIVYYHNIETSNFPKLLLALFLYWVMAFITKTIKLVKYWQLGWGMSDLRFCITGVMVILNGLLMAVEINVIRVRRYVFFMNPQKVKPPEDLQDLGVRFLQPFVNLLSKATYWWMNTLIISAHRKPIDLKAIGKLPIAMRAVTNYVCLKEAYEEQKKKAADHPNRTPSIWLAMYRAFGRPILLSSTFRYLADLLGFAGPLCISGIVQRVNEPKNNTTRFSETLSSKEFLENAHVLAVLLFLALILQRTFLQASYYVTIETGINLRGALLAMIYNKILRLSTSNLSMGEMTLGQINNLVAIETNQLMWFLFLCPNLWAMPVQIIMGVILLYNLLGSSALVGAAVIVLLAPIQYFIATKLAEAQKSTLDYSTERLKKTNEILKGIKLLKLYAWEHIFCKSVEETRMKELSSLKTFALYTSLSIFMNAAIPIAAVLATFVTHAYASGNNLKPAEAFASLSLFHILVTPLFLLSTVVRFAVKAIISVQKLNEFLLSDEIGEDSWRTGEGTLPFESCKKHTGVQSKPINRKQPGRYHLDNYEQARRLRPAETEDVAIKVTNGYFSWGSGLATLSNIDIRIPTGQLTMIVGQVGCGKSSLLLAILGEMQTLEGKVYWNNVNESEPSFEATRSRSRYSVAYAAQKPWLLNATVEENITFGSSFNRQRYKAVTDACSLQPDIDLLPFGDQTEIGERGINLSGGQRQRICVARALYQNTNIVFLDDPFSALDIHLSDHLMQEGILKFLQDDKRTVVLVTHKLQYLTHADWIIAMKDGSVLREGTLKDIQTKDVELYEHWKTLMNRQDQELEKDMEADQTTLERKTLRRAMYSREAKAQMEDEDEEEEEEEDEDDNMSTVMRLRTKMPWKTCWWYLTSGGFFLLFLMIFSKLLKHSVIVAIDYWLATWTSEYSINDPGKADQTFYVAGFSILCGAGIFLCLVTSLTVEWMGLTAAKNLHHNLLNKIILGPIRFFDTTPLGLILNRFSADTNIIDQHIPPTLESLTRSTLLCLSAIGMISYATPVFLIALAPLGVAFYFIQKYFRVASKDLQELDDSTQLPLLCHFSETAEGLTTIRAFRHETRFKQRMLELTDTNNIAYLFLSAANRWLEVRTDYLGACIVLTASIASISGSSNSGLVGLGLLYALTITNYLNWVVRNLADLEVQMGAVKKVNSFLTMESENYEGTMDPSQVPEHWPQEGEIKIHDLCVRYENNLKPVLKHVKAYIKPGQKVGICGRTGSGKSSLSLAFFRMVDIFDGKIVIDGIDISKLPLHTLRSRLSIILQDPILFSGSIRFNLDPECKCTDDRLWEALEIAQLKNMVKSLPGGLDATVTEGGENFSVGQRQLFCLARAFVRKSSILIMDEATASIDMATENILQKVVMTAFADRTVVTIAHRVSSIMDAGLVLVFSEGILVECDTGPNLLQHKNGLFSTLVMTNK
# Sequence of potassium channels (Rattus norvegicus, UniProt Q63563) (Q63664 whole entry partner): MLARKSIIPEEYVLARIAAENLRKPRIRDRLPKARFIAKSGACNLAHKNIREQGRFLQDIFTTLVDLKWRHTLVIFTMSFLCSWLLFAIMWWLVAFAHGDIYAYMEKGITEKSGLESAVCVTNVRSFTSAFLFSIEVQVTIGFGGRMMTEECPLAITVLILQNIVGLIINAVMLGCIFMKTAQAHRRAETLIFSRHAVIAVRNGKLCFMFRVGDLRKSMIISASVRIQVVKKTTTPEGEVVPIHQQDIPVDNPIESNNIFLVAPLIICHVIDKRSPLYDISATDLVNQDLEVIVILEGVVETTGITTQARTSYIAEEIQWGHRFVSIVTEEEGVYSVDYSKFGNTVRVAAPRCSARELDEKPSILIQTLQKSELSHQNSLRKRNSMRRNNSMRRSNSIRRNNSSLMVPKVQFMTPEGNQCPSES
# Sequence of potassium channels (Cavia porcellus, UniProt A0A286XYR9) (A0A286XYR9 1-1546): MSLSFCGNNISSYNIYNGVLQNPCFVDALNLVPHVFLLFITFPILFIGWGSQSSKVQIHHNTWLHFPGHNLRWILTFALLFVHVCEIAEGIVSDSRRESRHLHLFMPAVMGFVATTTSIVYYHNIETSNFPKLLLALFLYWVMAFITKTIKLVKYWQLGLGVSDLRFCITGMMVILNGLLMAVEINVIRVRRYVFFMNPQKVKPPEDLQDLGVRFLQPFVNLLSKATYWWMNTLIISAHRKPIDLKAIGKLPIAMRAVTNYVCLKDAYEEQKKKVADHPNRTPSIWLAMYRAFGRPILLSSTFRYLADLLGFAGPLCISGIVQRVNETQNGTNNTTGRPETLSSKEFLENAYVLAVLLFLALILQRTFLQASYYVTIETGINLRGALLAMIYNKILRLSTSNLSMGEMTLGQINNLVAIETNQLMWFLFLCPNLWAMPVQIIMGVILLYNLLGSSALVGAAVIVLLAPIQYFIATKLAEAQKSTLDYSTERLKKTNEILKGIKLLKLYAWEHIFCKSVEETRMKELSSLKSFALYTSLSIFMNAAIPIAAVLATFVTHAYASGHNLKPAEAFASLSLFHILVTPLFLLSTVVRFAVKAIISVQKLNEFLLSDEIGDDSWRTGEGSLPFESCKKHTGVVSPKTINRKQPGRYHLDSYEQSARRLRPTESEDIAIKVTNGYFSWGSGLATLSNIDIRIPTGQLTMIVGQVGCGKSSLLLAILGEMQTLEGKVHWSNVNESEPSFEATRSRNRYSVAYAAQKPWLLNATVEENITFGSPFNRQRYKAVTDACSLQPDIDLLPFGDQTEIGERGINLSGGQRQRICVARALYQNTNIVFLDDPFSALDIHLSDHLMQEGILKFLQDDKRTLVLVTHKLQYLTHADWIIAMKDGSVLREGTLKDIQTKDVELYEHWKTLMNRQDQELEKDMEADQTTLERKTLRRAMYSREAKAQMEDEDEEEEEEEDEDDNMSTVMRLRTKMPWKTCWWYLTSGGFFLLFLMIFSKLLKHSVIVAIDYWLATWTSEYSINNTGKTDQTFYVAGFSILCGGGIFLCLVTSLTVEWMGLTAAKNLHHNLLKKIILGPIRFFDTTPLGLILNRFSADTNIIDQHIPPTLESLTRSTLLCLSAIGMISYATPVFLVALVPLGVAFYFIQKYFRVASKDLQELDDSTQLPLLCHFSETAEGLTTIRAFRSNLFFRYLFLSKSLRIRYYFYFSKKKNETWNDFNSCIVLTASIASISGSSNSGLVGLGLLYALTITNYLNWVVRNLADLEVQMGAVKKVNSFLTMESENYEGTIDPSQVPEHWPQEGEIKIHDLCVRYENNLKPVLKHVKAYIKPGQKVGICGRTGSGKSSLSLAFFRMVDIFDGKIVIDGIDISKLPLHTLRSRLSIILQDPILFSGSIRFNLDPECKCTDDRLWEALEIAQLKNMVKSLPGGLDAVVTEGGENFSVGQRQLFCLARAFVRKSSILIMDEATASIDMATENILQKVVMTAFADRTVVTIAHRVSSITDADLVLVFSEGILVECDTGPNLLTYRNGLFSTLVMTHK
# Sequence of potassium channels (Cavia porcellus, UniProt A0A286XYR9) (Q9JHJ9 whole entry partner): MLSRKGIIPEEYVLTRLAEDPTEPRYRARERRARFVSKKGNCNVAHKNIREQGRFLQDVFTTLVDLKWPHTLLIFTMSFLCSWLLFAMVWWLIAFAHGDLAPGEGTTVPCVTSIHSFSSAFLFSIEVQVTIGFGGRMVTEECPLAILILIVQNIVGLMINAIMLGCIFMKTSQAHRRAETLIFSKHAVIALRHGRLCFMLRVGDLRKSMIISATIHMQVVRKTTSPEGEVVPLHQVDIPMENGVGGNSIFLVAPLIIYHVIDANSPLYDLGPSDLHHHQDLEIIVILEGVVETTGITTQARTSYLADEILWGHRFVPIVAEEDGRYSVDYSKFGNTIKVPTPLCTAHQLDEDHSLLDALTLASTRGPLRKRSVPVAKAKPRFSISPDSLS
SMILES,"reduction in bladder AUC (Male CD rats; iv, dose range of 0.01, 0.1)","AUC ED30 (dose required to reduce the area under the curve of the bladder contractions by 30% relative to control) (Male CD rats; urethane-anesthetized male CD rats, iv cumulative dosing) [µmol/kg]",Landrace Pig Bladder Index (potassium channels [1]),Landrace Pig Bladder Efficacy (% P1075) (potassium channels [1]; [5]),Landrace Pig Bladder pD2 (potassium channels [1]),EC50 (potassium channels [2]) [µM],MHP in GPB Cells Maximal Response (% P1075) (potassium channels [2]),EC50 (potassium channels [3]) [µM],MHP in A10 Cells Maximal Response (% P1075) (potassium channels [3]),"Emax (potassium channels [4]; human, maximal efficacy relative to P1075, detrusor strips contracted with 25 mM KCl) [%]","Emax (potassium channels [1]; pig, maximal efficacy relative to P1075, field stimulation 0.05Hz, 0.5 milli-seconds at 20 volts) [%]","relaxation of human detrusor strips (potassium channels [4]; control agonist, 25 mM KCl contracted)","effect on stimulated twitch of pig bladder strips (potassium channels [1]; control agonist, concentration range of 10-9 to 10-′M, 1/2 log increments)"
"O=C1CCC2=C1C(c1ccc(F)c(Br)c1)C1=C(CCS1(=O)=O)N2 (single isomer, unassigned; (+)) [Example 87]",dose dependent reduction in bladder AUC,0.06,0.90,100,7.5,–,–,–,–,–,–,–,–
"O=C1CCCC2=C1C(c1cccc(Br)c1)C1=C(CCCS1(=O)=O)N2 (stereo not shown) [Example 8, 10-(3-bromophenyl)-3,4,6,7,8,10-hexahydro-2H-thiopyrano [3,2-b]quinolin-9(5H)-one, 1,1-dioxide]",–,–,0.025,95,5.0,2.5,100,7.5,66,–,–,–,–
"O=C1CCCC2=C1C(c1cccc(F)c1)C1=C(CCCS1(=O)=O)N2 (stereo not shown) [Example 11, 10-(3-fluorophenyl)-3,4,6,7,8,10-hexahydro-2H-thionyrano [3,2-b]quinolin-9(5H)-one, 1,1-dioxide]",–,–,0.0021,100,4.1,20,29,11,42,–,–,–,–
"O=C1CCCC2=C1C(c1ccc(Cl)c([N+](=O)[O-])c1)C1=C(CCCS1(=O)=O)N2 (stereo not shown) [Example 19, 10-(4-chloro-3-nitrolphenyl)-3,4,6,7,8,10-hexahydro-2H-thiopyrano [3,2-b]quinolin-9(5H)-one, 1,1-dioxide]",–,–,0.13,–,6.0,–,–,–,–,100,94,–,–
"CCC(C)(C)N=C(NC#N)Nc1cccnc1 [Example P1075, reference compound]",–,–,–,–,–,–,–,–,–,–,–,complete relaxation,completely eliminated the stimulated twitch
